Tests used:
[1] = target: farnesyl protein transferase (FPTase) (Homo sapiens, UniProt P49354+P49356); assay: In vitro assay for inhibition of farnesyl protein transferase; assay type: biochemical; conditions: essentially as described in WO 98/40383, pages 33-34, read-out: IC50 FPTase inhibitory activity
Protocol: In Vitro Assay for Inhibition of Farnesyl Protein Transferase
An in vitro assay for inhibition of farnesyl protein transferase was performed essentially as described in WO 98/40383, pages 33-34.

Row | IC50 [1] [nM] | melting point [°C] | SMILES
1 | 1.1 | – | Cn1cncc1C(N)(c1ccc(Cl)cc1)c1ccc2c(c1)c(-c1cccc(Cl)c1)nc1nnnn12 (racemic) [parent enantiomeric mixture, (±)-5-(3-chlorophenyl)-α-(4-chlorophenyl)-α-(1-methyl-1H-imidazol-5-yl)tetrazolo[1,5-a]quinazoline-7-methanamine, reference compound]
2 | 0.7 | 178 to 180 | Cn1cncc1C(N)(c1ccc(Cl)cc1)c1ccc2c(c1)c(-c1cccc(Cl)c1)nc1nnnn12 (single isomer, unassigned; (-)) [(−) enantiomer, (−)-5-(3-chlorophenyl)-α-(4-chlorophenyl)-α-(1-methyl-1H-imidazol-5-yl)tetrazolo[1,5-a]quinazoline-7-methanamine]
